Experimental data reported in PMC7178755 (Toxicology and applied pharmacology, 2019).

Legend:
[1] = rat, sex and strain not specified; ref Halocarbon, 2008; cited from earlier work
[2] = Plasma toxicokinetics after single gavage administration in rats; assay type: in vivo, Harlan Sprague Dawley rats; conditions: for bioavailability / Tmax / AUC(0-inf) / Cmax / half-life: rat, po; for bioavailability / Tmax / AUC(0-inf) / Cmax / half-life / Cl1_F / Cl2_F / K12 / K21 / V1_F / V2_F: plasma; for half-life / Cl1_F / Cl2_F / K12 / K21 / V1_F / V2_F: mean (SE)
[3] = female, Harlan Sprague Dawley (Hsd:Sprague Dawley SD), 34 mg/kg
[4] = female, Hsd:Sprague Dawley SD, 34 mg/kg
[5] = female, Hsd:Sprague Dawley SD, 110 mg/kg
[6] = female, Hsd:Sprague Dawley SD, 340 mg/kg
[7] = free BPAF, female HSD rats, 34 mg/kg gavage
[8] = free BPAF, female rats, 34 mg/kg gavage
[9] = free BPAF, female rats, 110 mg/kg gavage
[10] = free BPAF, female rats, 340 mg/kg gavage
[11] = free BPAF, male rats, 34 mg/kg gavage
[12] = free BPAF, male rats, 110 mg/kg gavage
[13] = free BPAF, male rats, 340 mg/kg gavage
[14] = male, Hsd:Sprague Dawley SD, 34 mg/kg

In the case of `Oc1ccc(C(c2ccc(O)cc2)(C(F)(F)F)C(F)(F)F)cc1` [BPAF, Bisphenol AF], the “oral LD50” value [1] is listed as 3400 mg/kg, the bioavailability ([2]; both, Hsd:Sprague Dawley SD) is listed as roughly 1% and the Tmax ([2]; both, Hsd:Sprague Dawley SD, 34 mg/kg) is listed as 46 to 48.7 min. For the same compound, the AUC(0-inf) [2, 3] was 1.37 µM·h, the Cmax [2, 3] was 142 nM and the bioavailability [2, 3] was 1.02%. The bioavailability ([2]; female, Harlan Sprague Dawley (Hsd:Sprague Dawley SD), 340 mg/kg) was 1.06%, the Tmax ([2]; female, Hsd:Sprague Dawley SD) was 46 to 80.4 min and the AUC(0-inf) [2, 4] was 461 ng·h/mL. The Cmax [2, 4] was 47.4 ng/mL, the Tmax [2, 4] was 46 min and the half-life ([2]; female, Hsd:Sprague Dawley SD, 34 mg/kg, Alpha Half-life, free BPAF, female rats, 34 mg/kg gavage) was 23 min. The half-life ([2]; female, Hsd:Sprague Dawley SD, 34 mg/kg, Beta Half-life, free BPAF, female rats, 34 mg/kg gavage) was 521 min, the half-life ([2]; female, Hsd:Sprague Dawley SD, 34 mg/kg, K10 Half-Life, free BPAF, female rats, 34 mg/kg gavage) was 201 min and the AUC(0-inf) [2, 5] was 1470 ng·h/mL. It also gave a Cmax [2, 5] of 245 ng/mL, a Tmax [2, 5] of 39.5 min and an AUC(0-inf) [2, 6] of 4810 ng·h/mL. The Cmax [2, 6] was 555 ng/mL, the Tmax [2, 6] was 80.4 min and the “Dose-normalized AUC0−∞” value [2, 7] was 13.6 (nmol.h/mL)/(mmol/kg). The “Dose-normalized Cmax” value [2, 7] was 1.406 (nmol/mL)/(mmol/kg), the Cl1_F [2, 8] was 73.8 (13.3) L/h/kg and the Cl2_F [2, 8] was 350 (4650) L/h /kg. For the same compound, the K12 [2, 8] was 0.981 (31.1) 1/h, the K21 [2, 8] was 0.698 (1.29) 1/h and the V1_F [2, 8] was 357 (6600) L/kg. For the same compound, the V2_F [2, 8] was 502 (5820) L/kg, the Cl1_F [2, 9] was 74.7 (13.4) L/h/kg and the Cl2_F [2, 9] was 194 (503) L/h /kg. For the same compound, the K12 [2, 9] was 1.07 (19.3) 1/h, the K21 [2, 9] was 0.215 (0.115) 1/h and the V1_F [2, 9] was 181 (2810) L/kg. For the same compound, the V2_F [2, 9] was 899 (2050) L/kg, the Cl1_F [2, 10] was 70.7 (94.0) L/h/kg and the Cl2_F [2, 10] was 101 (180) L/h /kg. For the same compound, the K12 [2, 10] was 0.433 (15.4) 1/h, the K21 [2, 10] was 0.0391 (0.0929) 1/h and the V2_F [2, 10] was 2580 (6150) L/kg. The Cl1_F [2, 11] was 85.2 (20.0) L/h/kg, the Cl2_F [2, 11] was 193 (24800) L/h /kg and the K12 [2, 11] was 0.849 (604) 1/h. The K21 [2, 11] was 0.257 (0.137) 1/h, the V1_F [2, 11] was 227 (132000) L/kg and the V2_F [2, 11] was 752 (966600) L/kg. For the same compound, the Cl1_F [2, 12] was 89.1 (52.4) L/h/kg, the Cl2_F [2, 12] was 122 (2520) L/h /kg and the K12 [2, 12] was 0.402 (62.7) 1/h. The K21 [2, 12] was 0.0972 (0.207) 1/h, the V1_F [2, 12] was 304 (41100) L/kg and the V2_F [2, 12] was 1260 (23900) L/kg. The Cl1_F [2, 13] was 70.3 (20.8) L/h/kg, the Cl2_F [2, 13] was 36.9 (1910) L/h /kg and the K12 [2, 13] was 0.156 (49.5) 1/h. For the same compound, the K21 [2, 13] was 0.0814 (0.223) 1/h, the V1_F [2, 13] was 237 (62900) L/kg and the V2_F [2, 13] was 454 (24400) L/kg. For the same compound, the bioavailability ([2]; male, Harlan Sprague Dawley (Hsd:Sprague Dawley SD), 34 mg/kg) was 0.88%, the bioavailability ([2]; male, Harlan Sprague Dawley (Hsd:Sprague Dawley SD), 110 mg/kg) was 0.84% and the bioavailability ([2]; male, Harlan Sprague Dawley (Hsd:Sprague Dawley SD), 340 mg/kg) was 1.07%. For the same compound, the Tmax ([2]; male, Hsd:Sprague Dawley SD) was 48.7 to 138 min, the AUC(0-inf) [2, 14] was 399 ng·h/mL and the Cmax [2, 14] was 60.7 ng/mL. The Tmax [2, 14] was 48.7 min, the half-life ([2]; male, Hsd:Sprague Dawley SD, 34 mg/kg, Alpha Half-life, free BPAF, male rats, 34 mg/kg gavage) was 29.5 min and the half-life ([2]; male, Hsd:Sprague Dawley SD, 34 mg/kg, Beta Half-life, free BPAF, male rats, 34 mg/kg gavage) was 612 min.
